In patent publication US6071905A, “Biologically active substance on the basis of tetracyclic nitrogen heterocycles of pyrimidine row” (Natural Drug Sciences, LLC, priority 1998, dated 2000):
≈ marks a conversion by molar mass, not a printed value.

Key:
[1] = system: herpes virus I of the type (VPG-1/Leningrad/248/88); assay: antiviral action on herpes virus in Vero cells (cytopathogenic action); type: cell-based; details: 36 hours, 38° C.
M. tuberculosis H37Rv = assay: series culture (dilution) method, MIC, M. tuberculosis H37Rv; type: cell-based; details: Mycobacterium tuberculosis, 72 hour cultivation, 37° C., Soton medium with 10% horse serum
Description: In order to determine antimicrobial activity standard strains Mycobacterium smegmatis ATCC607 and Mycobacterium tuberculosis H37RV were used which are sensitive to all antimicrobial compounds.
The evaluation of antimicrobial action was performed with the method of series culture (5). M. smegmatis ATCC607 for seeding was grown on liquid synthetic medium N-1.
The compounds were dissolved in dimethyl sulfoxide (DMSO) and tittered in medium N-1, so that this compound was contained in separate test tubes with the medium in concentration of 200-0.025 mg/l. The concentration of the compound in the medium of neighboring test tubes was differed twice. For the control, DMSO which was tittered the same as the compound, was utilized. Test strain of bacteria was added in the quantity 1-2×10^6 ml. The result was considered after 72 hour cultivation of test tubes at 37° C.
For M tuberculosis H37Rv conditions of experiment were identical, with the exception of the fact that bacteria were grown on the Soton medium which contains 10% horse serum, and density of microbial suspension during seeding was (5.0×10^6) in ml.
As the control, in both cases known tuberculostatic compounds were utilized.

M. smegmatis ATCC607 = assay: series culture (dilution) method, MIC, M. smegmatis ATCC607; type: cell-based, Mycobacterium smegmatis; details: Mycolicibacterium smegmatis, 72 hour cultivation, 37° C., medium N-1
M. avium 84 = assay: action on pathogenic mycobacteria from patients, Lowenstein-Jensen medium, M. avium 84; type: cell-based, Mycobacterium avium; details: title: concentration of compound 10.0 g/l; 30 days
[2] = system: primary culture of human lymphocytes; assay: interferon-inducing activity in primary culture of human lymphocytes (immuno-ferment assay); type: cell-based; details: 24 hours of incubation
C. trachomatis D323 = assay: action on Chlamydia trachomatis in cell culture (McCoy and L929); type: cell-based; details: 48 hours
Vero = assay: control of compounds (toxicity) on Vero cell culture; type: cell-based
M. bovis bovinus 8 = type: in vivo, M. bovis bovinus 8; no-breed male mice; details: for Coefficient of lung mass / Index of damage lungs / Perished animals: 42 day after infection; for Coefficient of lung mass / Index of damage lungs / Seeding M.tub.: dose not given; for Perished animals: tested compounds orally (10, 20 and 30 mg/kg), streptomycin intramuscularly; for Seeding M.tub.: from spleen, CFU per 100 mg
in vivo = details: mouse

Question: Which “number of unchanged cells in 100 fields” value ([1]; 10 mg/l) does the source give for `Nc1nc2c(ncn2COCCO)c(=O)[nH]1` [Acyclovir, reference compound] here?
Answer: 8000

Question: With `CC[C@@H](CO)NCCN[C@@H](CC)CO` [Ethambutol, reference compound] as the compound, how does the MIC (M. tuberculosis H37Rv) read?
Answer: 5 µg/mL (≈ 24.5 µM)

Question: And the MIC (M. smegmatis ATCC607)?
Answer: 5 µg/mL (≈ 24.5 µM)

Question: Which MIC (M. tuberculosis H37Rv) does the source give for `NNC(=O)c1ccncc1` [Isoniazid, hydrazide of izonicotinic acid, reference compound] here?
Answer: 0.1 µg/mL (≈ 0.729 µM)

Question: And the MIC (M. smegmatis ATCC607)?
Answer: 1.5 µg/mL (≈ 10.9 µM)

Question: What about the “antimicrobial action, M. avium 84” value (M. avium 84) of the same compound?
Answer: growth

Question: Which MIC (M. tuberculosis H37Rv) does the source give for `CC1COc2c(N3CCN(C)CC3)c(F)cc3c(=O)c(C(=O)O)cn1c23` (centres unmarked) [Ofloxacin, reference compound] here?
Answer: 0.5 µg/mL (≈ 1.38 µM)

Question: And the MIC (M. smegmatis ATCC607)?
Answer: 0.5 µg/mL (≈ 1.38 µM)

Question: Which results are given for `O=c1c2cc([N+](=O)[O-])cc(Br)c2oc2nc3n(c(=O)c12)CCCS3` [R1=Br, R2-NO2, 1-bromo-3-nitro-5-oxo-5H-[1]-benzopyrano-[5,6-b]-4-oxo-4H-[1,2]-pyrimido-1,4,5,6-tetrahydro-1,3-thiazine]?
Answer: MIC (M. tuberculosis H37Rv): 25 µg/mL (≈ 60.9 µM); MIC (M. smegmatis ATCC607): 100 µg/mL (≈ 244 µM)

Question: Which MIC (M. tuberculosis H37Rv) does the source give for `O=c1c2cc([N+](=O)[O-])cc(Cl)c2oc2nc3n(c(=O)c12)CCCS3` [R1=Cl, R2=NO2, 1-chloro-3-nitro-5-oxo-5H-[1]-benzopyrano-[5,6-b]-4-oxo-4H-[1,2]-pyrimido-1,4,5,6-tetrahydro-1,3-thiazine] here?
Answer: 50 µg/mL (≈ 137 µM)

Question: What about the MIC (M. smegmatis ATCC607) of the same compound?
Answer: 100 µg/mL (≈ 273 µM)

Question: What about the “Content of IFN in induction mixture” value ([2]; 1 μg/ml) of the same compound?
Answer: 3.6 ± 0.5 ME/3*10^4 limph./ml

Question: And the “Content of IFN in induction mixture” value ([2]; 10 μg/ml)?
Answer: 18 ± 1.6 ME/3*10^4 limph./ml

Question: With `O=c1c2cc(Br)ccc2oc2nc3n(c(=O)c12)CCCS3` [R1=H, R2=Br, 3-bromo-5-oxo-5H-[1]-benzopyrano-[5,6-b]-4-oxo-4H-[1,2]-pyrimido-1,4,5,6-tetrahydro-1,3-thiazine] as the compound, how does the MIC (M. tuberculosis H37Rv) read?
Answer: 25 µg/mL (≈ 68.5 µM)

Question: And the MIC (M. smegmatis ATCC607)?
Answer: 50 µg/mL (≈ 137 µM)

Question: And the “Content of IFN in induction mixture” value ([2]; 1 μg/ml)?
Answer: 14 ± 0.5 ME/3*10^4 limph./ml

Question: And the “Content of IFN in induction mixture” value ([2]; 10 μg/ml)?
Answer: 84 ± 2.5 ME/3*10^4 limph./ml

Question: What about the “Content of IFN in induction mixture” value ([2]; 100 μg/ml) of the same compound?
Answer: 192 ± 1.6 ME/3*10^4 limph./ml

Question: What about the “Number of unchanged cells” value (C. trachomatis D323; 100 mg/l) of the same compound?
Answer: 7.000

Question: For `O=c1c2cc(Cl)ccc2oc2nc3n(c(=O)c12)CCCS3` [R1=H, R2=Cl, 3-chloro-5-oxo-5H-[1]-benzopyrano-[5,6-b]-4-oxo-4H-[1,2]-pyrimido-1,4,5,6-tetrahydro-1,3-thiazine], which MIC (M. tuberculosis H37Rv) is on record?
Answer: 10 µg/mL (≈ 31.2 µM)

Question: And the MIC (M. smegmatis ATCC607)?
Answer: 10 µg/mL (≈ 31.2 µM)

Question: With `O=c1c2cc([N+](=O)[O-])ccc2oc2nc3n(c(=O)c12)CCCS3` [R1=H, R2=NO2, 3-nitro-5-oxo-5H-[1]-benzopyrano-[5,6-b]-4-oxo-4H-[1,2]-pyrimido-1,4,5,6-tetrahydro-1,3-thiazine] as the compound, how does the MIC (M. tuberculosis H37Rv) read?
Answer: 50 µg/mL (≈ 151 µM)

Question: What about the MIC (M. smegmatis ATCC607) of the same compound?
Answer: 100 µg/mL (≈ 302 µM)

Question: And the “number of unchanged cells in 100 fields” value ([1]; 10 mg/l)?
Answer: 6000

Question: And the “toxicity of compounds to cells” value (Vero; 50 mg/l)?
Answer: toxic

Question: What about the “toxicity of compounds to cells” value (Vero; 100 mg/l) of the same compound?
Answer: toxic

Question: What about the “Content of IFN in induction mixture” value ([2]; 1 μg/ml) of the same compound?
Answer: 4.2 ± 0.8 ME/3*10^4 limph./ml

Question: And the “Content of IFN in induction mixture” value ([2]; 10 μg/ml)?
Answer: 20 ± 1.2 ME/3*10^4 limph./ml

Question: And the “Content of IFN in induction mixture” value ([2]; 100 μg/ml)?
Answer: 48 ± 1.2 ME/3*10^4 limph./ml

Question: Which MIC (M. tuberculosis H37Rv) does the source give for `COc1ccc2oc3nc4n(c(=O)c3c(=O)c2c1)CCCS4` [R1=H, R2=OCH3, 3-methoxy-5-oxo-5H-[1]-benzopyrano-[5,6-b]-4-oxo-4H-[1, 2]-pyrimido-1,4,5,6-tetrahydro-1,3-thiazine] here?
Answer: 50 µg/mL (≈ 158 µM)

Question: What about the MIC (M. smegmatis ATCC607) of the same compound?
Answer: 100 µg/mL (≈ 316 µM)

Question: Which MIC (M. tuberculosis H37Rv) does the source give for `O=c1c2cc(O)ccc2oc2nc3n(c(=O)c12)CCCS3` [R1=H, R2=OH, 3-hydroxy-5-oxo-5H-[1]-benzopyrano-[5,6-b]-4-oxo-4H-[1,2]-pyrimido-1,4,5,6-tetrahydro-1,3-thiazine] here?
Answer: 50 µg/mL (≈ 165 µM)

Question: What about the MIC (M. smegmatis ATCC607) of the same compound?
Answer: 100 µg/mL (≈ 331 µM)

Question: Which results are given for `O=c1c2cc(Br)cc(Br)c2oc2nc3n(c(=O)c12)CCCS3` [R1=R2=Br, 1,3-dibromo-5-oxo-5H-[1]-benzopyrano-[5,6-b]-4-oxo-4H-[1,2]-pyrimido-1,4,5,6-tetrahydro-1,3-thiazine]?
Answer: MIC (M. tuberculosis H37Rv): 0.1 µg/mL (≈ 0.225 µM); MIC (M. smegmatis ATCC607): 0.1 µg/mL (≈ 0.225 µM); Coefficient of lung mass (M. bovis bovinus 8): 2.30 con. units; Index of damage lungs (M. bovis bovinus 8): 2.3 con. unit; Perished animals (M. bovis bovinus 8): 0%; Seeding M.tub. (M. bovis bovinus 8): 180 CFU; Content of IFN in induction mixture ([2]; 1 μg/ml): 4.0 ± 0.5 ME/3*10^4 limph./ml; Content of IFN in induction mixture ([2]; 10 μg/ml): 23 ± 1.0 ME/3*10^4 limph./ml; Content of IFN in induction mixture ([2]; 100 μg/ml): 47 ± 0.8 ME/3*10^4 limph./ml; LD50 at 336 h (in vivo): > 1500 mg/kg

Question: For `O=c1c2cc(Cl)cc(Cl)c2oc2nc3n(c(=O)c12)CCCS3` [R1=R2=Cl, 1,3-dichloro-5-oxo-5H-[1]-benzopyrano-[5,6-b]-4-oxo-4H-[1,2]-pyrimido-1,4,5,6-tetrahydro-1,3-thiazine], which MIC (M. tuberculosis H37Rv) is on record?
Answer: 0.3 µg/mL (≈ 0.845 µM)

Question: And the MIC (M. smegmatis ATCC607)?
Answer: 1 µg/mL (≈ 2.82 µM)

Question: What about the “Coefficient of lung mass” value (M. bovis bovinus 8) of the same compound?
Answer: 2.42 con. units

Question: What about the “Index of damage lungs” value (M. bovis bovinus 8) of the same compound?
Answer: 2.5 con. unit

Question: And the Perished animals (M. bovis bovinus 8)?
Answer: 0%

Question: And the “Seeding M.tub.” value (M. bovis bovinus 8)?
Answer: 195 CFU

Question: What about the LD50 at 336 h (in vivo) of the same compound?
Answer: > 1500 mg/kg

Question: What does the source list for `O=c1c2ccccc2oc2nc3n(c(=O)c12)CCCS3` [R1=R2=H, 5-oxo-5H-[1]-benzopyrano-[5,6-b]-4-oxo-4H-[1,2]-pyrimido-1,4,5,6-tetrahydro-1,3-thiazine]?
Answer: MIC (M. tuberculosis H37Rv): 0.6 µg/mL (≈ 2.1 µM); MIC (M. smegmatis ATCC607): 0.3 µg/mL (≈ 1.05 µM); number of unchanged cells in 100 fields ([1]; 10 mg/l): 3000; number of unchanged cells in 100 fields ([1]; 50 mg/l): 6000; toxicity of compounds to cells (Vero; 100 mg/l): toxic; Number of unchanged cells (C. trachomatis D323; 10 mg/l): 7.200; LD50 at 336 h (in vivo): > 1500 mg/kg

Question: For `CO[C@H]1/C=C/O[C@@]2(C)Oc3c(C)c(O)c4c(O)c(cc(O)c4c3C2=O)NC(=O)/C(C)=C\C=C\[C@H](C)[C@H](O)[C@@H](C)[C@@H](O)[C@@H](C)[C@H](OC(C)=O)[C@@H]1C` [Rifamycin, reference compound], which MIC (M. tuberculosis H37Rv) is on record?
Answer: 0.05 µg/mL (≈ 0.0717 µM)

Question: What about the MIC (M. smegmatis ATCC607) of the same compound?
Answer: 0.25 µg/mL (≈ 0.358 µM)

Question: What about the “antimicrobial action, M. avium 84” value (M. avium 84) of the same compound?
Answer: growth

Question: With `[H]/N=C(/N)N[C@H]1[C@H](O)[C@@H](O)[C@H](O[C@@H]2O[C@@H](C)[C@](O)(C=O)[C@H]2O[C@@H]2O[C@@H](CO)[C@H](O)[C@@H](O)[C@@H]2NC)[C@@H](N/C(N)=N\[H])[C@@H]1O` [Streptomycin, reference compound] as the compound, how does the MIC (M. tuberculosis H37Rv) read?
Answer: 0.2 µg/mL (≈ 0.344 µM)

Question: What about the MIC (M. smegmatis ATCC607) of the same compound?
Answer: 0.15 µg/mL (≈ 0.258 µM)

Question: What about the “antimicrobial action, M. avium 84” value (M. avium 84) of the same compound?
Answer: growth

Question: What about the “Coefficient of lung mass” value (M. bovis bovinus 8) of the same compound?
Answer: 2.47 con. units

Question: What about the “Index of damage lungs” value (M. bovis bovinus 8) of the same compound?
Answer: 2.45 con. unit

Question: And the Perished animals (M. bovis bovinus 8)?
Answer: 0%

Question: And the “Seeding M.tub.” value (M. bovis bovinus 8)?
Answer: 200 CFU
